Results reported in a compilation of properties of binary mixtures (doi:10.1016/j.molliq.2019.111804).

Test: xn = mol fraction of the nth substance listed
Conditions: 101 kPa

CO + CCCC[n+]1ccn(C)c1.[Cl-]
x2 = 0
Conditions	electrical conductivity [S/m]
293.15 K	0.003
303.15 K	0.004
313.15 K	0.007
323.15 K	0.011

CCCC[n+]1ccn(C)c1.[Cl-] + CO
electrical conductivity [S/m]
Conditions	x1 = 0.0011	x1 = 0.0022	x1 = 0.0035	x1 = 0.0045	x1 = 0.0056	x1 = 0.0068	x1 = 0.008	x1 = 0.0092	x1 = 0.0104
293.15 K	0.18	0.34	0.48	0.6	0.72	0.83	–	1.02	1.13
303.15 K	0.2	0.38	0.53	–	0.79	0.9	1.01	1.11	1.22
313.15 K	0.23	–	–	0.75	0.87	1.01	1.12	1.23	1.33
323.15 K	0.26	0.48	0.67	–	0.96	1.1	1.24	1.35	1.45
